Test results taken from ChEMBL document CHEMBL1132752, “Structure-activity relationships of trans-3,5-disubstituted pyrrolidinylthio-1beta-methylcarbapenems. Part 2: J-111,225, J-114,870, J-114,871 and related compounds” (2000).
Values after ≈ are worked out from the molar mass of the structure shown.

What was measured:
Assay type in all cases: functional
[1] = system: Staphylococcus aureus; assay: In vitro antimicrobial activity against Staphylococcus aureus 209P NIHJ JCI
[2] = system: Staphylococcus aureus; assay: In vitro antimicrobial activity against methicillin resistant Staphylococcus aureus pMS520
[3] = organism: Sus scrofa; assay: Porcine renal DHP-1 susceptibility.
[4] = system: Pseudomonas aeruginosa; assay: In vitro antimicrobial activity against Pseudomonas aeruginosa AK 109
[5] = system: Pseudomonas aeruginosa; assay: In vitro antimicrobial activity against ceftazidime resistant Pseudomonas aeruginosa AKR 17
[6] = system: Escherichia coli; assay: In vitro antimicrobial activity against Escherichia coli NIHJ JC2
[7] = system: Rattus norvegicus; assay: Epileptogenicity at 200 ug in rat intracerebroventricular assay.
[8] = system: Staphylococcus epidermidis; assay: In vitro antimicrobial activity against methicillin resistant Staphylococcus epidermidis MB5181

Structure (SMILES) | MIC [1] | MIC [2] | Susceptibility [3] | MIC [4] | MIC [5] | MIC [6] | Epileptogenicity [7] | MIC [8]
C[C@@H](O)[C@H]1C(=O)N2C(C(=O)O)=C(S[C@@H]3CN[C@@H](c4ccc(CN)c5ccccc45)C3)[C@H](C)[C@H]12 | < 0.006 µg/mL | 1.56 µg/mL (≈ 3.34 µM) | 0.16 | 6.25 µg/mL (≈ 13.4 µM) | > 25 µg/mL | 0.05 µg/mL (≈ 0.107 µM) | 5 | 0.78 µg/mL (≈ 1.67 µM)
C[C@@H](O)[C@H]1C(=O)N2C(C(=O)O)=C(S[C@@H]3CN[C@@H](c4cccc(CN)c4)C3)[C@H](C)[C@H]12 | < 0.006 µg/mL | 1.56 µg/mL (≈ 3.74 µM) | 0.16 | 0.78 µg/mL (≈ 1.87 µM) | 6.25 µg/mL (≈ 15 µM) | 0.1 µg/mL (≈ 0.24 µM) | 5 | 3.13 µg/mL (≈ 7.5 µM)
C[C@@H](O)[C@H]1C(=O)N2C(C(=O)O)=C(S[C@@H]3CN[C@@H](c4ccc(CSC(=N)N)cc4)C3)[C@H](C)[C@H]12 | < 0.006 µg/mL | 1.56 µg/mL (≈ 3.27 µM) | 0.3 | 1.56 µg/mL (≈ 3.27 µM) | 12.5 µg/mL (≈ 26.2 µM) | 0.05 µg/mL (≈ 0.105 µM) | 3 | 1.56 µg/mL (≈ 3.27 µM)
CC(N)c1ccc([C@H]2C[C@H](SC3=C(C(=O)O)N4C(=O)[C@H]([C@@H](C)O)[C@H]4[C@H]3C)CN2)cc1 (some centres not stated) | < 0.006 µg/mL | 1.56 µg/mL (≈ 3.61 µM) | 0.55 | 0.78 µg/mL (≈ 1.81 µM) | 3.13 µg/mL (≈ 7.25 µM) | 0.025 µg/mL (≈ 0.0579 µM) | 0 | 0.78 µg/mL (≈ 1.81 µM)
C/C(N)=N/Cc1ccc([C@H]2C[C@H](SC3=C(C(=O)O)N4C(=O)[C@H]([C@@H](C)O)[C@H]4[C@H]3C)CN2)cc1 | < 0.006 µg/mL | 1.56 µg/mL (≈ 3.4 µM) | 0.25 | 1.56 µg/mL (≈ 3.4 µM) | 6.25 µg/mL (≈ 13.6 µM) | 0.05 µg/mL (≈ 0.109 µM) | – | 0.78 µg/mL (≈ 1.7 µM)
C[C@@H](O)[C@H]1C(=O)N2C(C(=O)O)=C(S[C@@H]3CN[C@@H](c4ccc(CCN)cc4)C3)[C@H](C)[C@H]12 | < 0.006 µg/mL | 1.56 µg/mL (≈ 3.61 µM) | 0.26 | 0.78 µg/mL (≈ 1.81 µM) | 6.25 µg/mL (≈ 14.5 µM) | 0.025 µg/mL (≈ 0.0579 µM) | 3 | 3.13 µg/mL (≈ 7.25 µM)
CCNCc1ccc([C@H]2C[C@H](SC3=C(C(=O)O)N4C(=O)[C@H]([C@@H](C)O)[C@H]4[C@H]3C)CN2)cc1 | < 0.006 µg/mL | 1.56 µg/mL (≈ 3.5 µM) | 0.44 | 1.56 µg/mL (≈ 3.5 µM) | 6.25 µg/mL (≈ 14 µM) | 0.025 µg/mL (≈ 0.0561 µM) | 0 | 1.56 µg/mL (≈ 3.5 µM)
CCC(N)c1ccc([C@H]2C[C@H](SC3=C(C(=O)O)N4C(=O)[C@H]([C@@H](C)O)[C@H]4[C@H]3C)CN2)cc1 (some centres not stated) | < 0.006 µg/mL | 1.56 µg/mL (≈ 3.5 µM) | 0.2 | 3.13 µg/mL (≈ 7.02 µM) | 25 µg/mL (≈ 56.1 µM) | 0.1 µg/mL (≈ 0.224 µM) | 0 | 1.56 µg/mL (≈ 3.5 µM)
C[C@@H](O)[C@H]1C(=O)N2C(C(=O)O)=C(SCCNC=N)C[C@H]12.O | < 0.006 µg/mL | 50 µg/mL | 1 | 1.56 µg/mL | 3.13 µg/mL | 0.1 µg/mL | 5 | 50 µg/mL
C[C@@H](O)[C@H]1C(=O)N2C(C(=O)O)=C(S[C@@H]3CN[C@@H](c4ccc(C(C)(C)N)cc4)C3)[C@H](C)[C@H]12 | < 0.006 µg/mL | 1.56 µg/mL (≈ 3.5 µM) | 0.37 | 1.56 µg/mL (≈ 3.5 µM) | 6.25 µg/mL (≈ 14 µM) | 0.05 µg/mL (≈ 0.112 µM) | 0 | 1.56 µg/mL (≈ 3.5 µM)
CNCc1ccc([C@H]2C[C@H](SC3=C(C(=O)O)N4C(=O)[C@H]([C@@H](C)O)[C@H]4[C@H]3C)CN2)o1 | < 0.006 µg/mL | 3.13 µg/mL (≈ 7.43 µM) | 0.1 | 1.56 µg/mL (≈ 3.7 µM) | 12.5 µg/mL (≈ 29.7 µM) | 0.025 µg/mL (≈ 0.0593 µM) | – | 1.56 µg/mL (≈ 3.7 µM)
C[C@@H](O)[C@H]1C(=O)N2C(C(=O)O)=C(S[C@@H]3CN[C@@H](c4ccc([C@H](N)CC(N)=O)cc4)C3)[C@H](C)[C@H]12 | < 0.006 µg/mL | 1.56 µg/mL (≈ 3.29 µM) | 0.27 | 1.56 µg/mL (≈ 3.29 µM) | 1.56 µg/mL (≈ 3.29 µM) | 0.025 µg/mL (≈ 0.0527 µM) | 0 | 1.56 µg/mL (≈ 3.29 µM)
CNCc1ccc([C@H]2C[C@H](SC3=C(C(=O)O)N4C(=O)[C@H]([C@@H](C)O)[C@H]4[C@H]3C)CN2)s1 | < 0.006 µg/mL | 1.56 µg/mL (≈ 3.57 µM) | 0.35 | 1.56 µg/mL (≈ 3.57 µM) | 3.13 µg/mL (≈ 7.15 µM) | 0.025 µg/mL (≈ 0.0571 µM) | 3 | 3.13 µg/mL (≈ 7.15 µM)
